Assay results taken from patent US8865775B2, “Anti-inflammatory agent and cancer-preventive agent comprising canolol or prodrug thereof and pharmaceutical, cosmetic and food comprising the same” (priority 2004, dated 2014).

What was measured:
[1] = test system: gastric carcinoma in Mongolian gerbils; experiment: Suppression of gastric carcinogenesis in gerbils infected with H. pylori and treated with MNU; type: in vivo
From the text: They were divided into two groups: one was fed with AIN-93G diet for mice containing 0.1% of canolol (“canolol-fed group”); the other was fed with the same diet compositions without canolol. […] Ten gerbils per group were examined.
Thin slices obtained from the paraffin blocks were examined with HE (hematoxyline eosin) staining under microscope.

[2] = Half-life in the culture medium; type: physicochemical
From the text: (§1) At the inflammatory site, peroxynitrite (ONOO^−) is excessively generated as a result of inflammatory reaction, and toxic effect thereof to living cells is one of the cause of pathogenesis. It was anticipated that canolol would exert protective effects against said toxicity of ONOO^− to cultured cells.

[3] = test system: 8-oxodeoxyguanosine (8-OHdG); experiment: 8-OHdG production in gastric specimens, fluorescent antibody staining; type: in vivo, Mongolian gerbils; settings: after 12 weeks
From the text: (§2) The six-week old Mongolian gerbils were given drinking water with 10 ppm of MNU (a carcinogen N-methylnitrosourea) for one week followed by oral infection with Helicobacter pylori ATCC 43504 strain, or were orally infected with 1×10^8 CFU of H. pylori and 10 ppm of MNU were then given for one week. They were divided into two groups: one was fed with AIN-93G diet for mice containing 0.1% of canolol (“canolol-fed group”); the other was fed with the same diet compositions without canolol. The experiment was continued for up to 52 weeks (X. Cao et al, Jpn. J. Cancer Res., 93, 1293-1298 (2002), N. Shimizu, et al, Cancer Res., 60, 1512-1514 (2000)). Ten gerbils per group were examined.
(§3) 8-OHdG is one of the markers of inflammatory disorders that are generated as a result from a reaction of reactive oxygen species with DNA, said reactive oxygen species being derived from inflammatory cells in vivo. The amount of 8-OHdG produced was studied under similar conditions as Example (1) using a conventional fluorescent antibody staining method with the anti-8-OHdG antibody against excised gastric specimens of each group after 12 weeks.

peritoneal macrophages = experiment: Effect on survival of macrophages; type: cell-based, BALB/c mice
[4] = test system: Salmonella typhimurium TA102; experiment: Suppression of ONOO- induced mutant colony formation (modified Ames medium); type: cell-based; settings: 8 μM canolol; ONOO- at or above 4 μM
Description: 1×10^8 CFU of Salmonella typhimurium TA102 was taken into a beaker under sterile condition, then ONOO^− was continuously infused under stirring to make a predetermined concentration of ONOO^− between 1-800 μM. (FIG. 7A). An aliquot of S. typhimurium at each time point was removed to a petri dish containing modified Ames medium which permits selective growth of only mutant strains, and was cultured. […] The mutant colonies were formed progressively at or above 4 μM of ONOO^−, while they were not formed with addition of 8 μM canolol.

[5] = test system: Mongolian gerbils infected with Helicobacter pylori ATCC 43504; experiment: Suppression of gastritis in Mongolian gerbils infected with H. pylori and given MNU (pathology of excised stomach); type: in vivo; settings: diet containing 0.1% canolol for 12 weeks; vs diet without canolol
From the text: as §2

cycloxygenase-2 (COX-2) = experiment: Induction of COX-2 in gastric lesions infected with H. pylori, immunostaining; type: in vivo, Mongolian gerbils; settings: immunostaining quantification, 12 weeks, n = 10
From the text: as §2
(§4) The expression levels of both enzymes were quantified by means of enzyme antibody using the specimens of Example (1) prepared 12 weeks after administration according to Example (2) . Both COX-2 and iNOS induced during inflammation are typical enzymes to onset an inflammation reaction. Namely, COX-2 produces prostanoid inflammatory mediators such as prostaglandin E2, and iNOS produces nitric oxide (NO), where these mediators and NO evokes inflammation. Both superoxide (O2^−) and NO produced at the site of inflammation immediately react with each other and form more reactive peroxynitrite (ONOO^−) (described later).

[6] = test system: stomach tissues of gerbils infected with H. pylori; experiment: Infiltration of neutrophils and hyperplasia in stomach tissues, hematoxylin-eosin staining; type: in vivo, Mongolian gerbils; settings: 12 weeks
From the text: as §2
Specimens of Example (1) were prepared 12 weeks after administration. Stomach specimens were prepared and examined under microscope after conventional hematoxylin-eosin staining.

Helicobacter pylori = experiment: H. pylori count in mid-stomach tissues of infected gerbils; type: in vivo; settings: after 12 weeks
From the text: as §2, §3

[7] = test system: NO production from macrophages; experiment: Suppression of NO production from LPS + IFN-γ treated peritoneal macrophages (Gries method); type: cell-based, BALB/c mice; settings: LPS 1 μg/ml + IFN-γ 0.1 μg/ml, 24 hours
Description: Next, the inflammatorily exuded peritoneal macrophages were treated with bacterial (E. coli) lipopolysaccharide (LPS) (1 μg/ml) and interferon-γ (0.1 μg/ml) in vitro, then the amount of NO, the inflammatory mediator released from the macrophages, was quantified as NO3^−+NO2^− by a conventional method (Gries method) [Stuehr D J, et al, J. Exp. Med., 169, 1543-55 (1989)] (FIG. 4). That is, to the 6-week old female BALB/c mice (SPF), 10% proteose peptone (1 ml) was injected intraperitoneally. The exuded peritoneal macrophages were collected by peritoneal puncture using a needled syringe, centrifuged in the presence of 10% heat-inactivated fetal calf serum and washed. The peritoneal macrophages (1×10^5/well), LPS (1 μg/ml), interferon-γ (IFN-γ) (0.1 μg/ml) and variable doses of canolol (5, 12.5, 25, 50, 100 μM) were plated in the plastic microplate (96-well) (Sumitomo Bakelite, Cat. #MS-8096F), and allowed to incubate for 24 hours at 37° C., under 5% CO2 and 95% air. Then, nitrite and nitrate ions in the supernatant were quantified by the Gries method. The culture medium used for the macrophages was RPMI-1640 containing 10% of heat-inactivated fetal calf serum. As control groups, LPS alone, and LPS+IFN-γ without canolol were used. The vertical axis of FIG. 4 indicates the total amount of nitrate and nitrite ions.

[8] = test system: inducible form of NO synthase (iNOS); experiment: Induction of iNOS in gastric lesions infected with H. pylori, immunostaining; type: in vivo, Mongolian gerbils; settings: immunostaining quantification, 12 weeks, n = 10
From the text: as §2, §4

[9] = test system: human embryonic kidney epithelial cells HEK 293; experiment: Neutralization of peroxynitrite (SIN-1) toxicity to cultured cells, MTT method; type: cell-based; settings: SIN-1 100 μM, HEK 293, MTT
From the text: as §1

[10] = Hp + MNU, number of gerbils, after 57 weeks
[11] = mid-stomach tissue, 0.1% canolol diet

SMILES: Cc1cc(C(C)(C)C)c(O)c(C(C)(C)C)c1 [BHT, 2,6-di-tert-butyl-4-methylphenol]
- Incidence of carcinoma, Frequency (%) ([1]; Hp + MNU, after 57 weeks): (39.4) %
- Incidence of carcinoma, Frequency (gerbils with carcinoma/group) ([1]; Hp + MNU, after 57 weeks): 13/33
- Incidence of carcinoma, Differentiation [1, 10]: 11
- Incidence of carcinoma, Undifferentiation [1, 10]: 2
- Rate of suppression (%) ([1]; Hp + MNU, vs group I (Hp + MNU), after 57 weeks): 6.5%

SMILES: Cl.N=c1c[n+](N2CCOCC2)[n-]o1 [SIN-1, 3-(4-morpholinyl) sydnonimine HCl]
- half-life [2]: 6 h

SMILES: C=Cc1cc(OC)c(O)c(OC)c1 [canolol, 4-vinyl-2,6-dimethoxyphenol]
- 8-OHdG production in vivo [3]: exerted suppressive activity
- Amount of 8-OHdG (ratio) [3, 11]: 19.6 ± 5.5 ratio
- toxicity to macrophages (survival) (peritoneal macrophages; at 100 μM): essentially non-toxic
- cytotoxic concentration (peritoneal macrophages; macrophages): ≥ 800 µM
- mutant colony formation by ONOO- [4]: not formed
- suppression of the cancer incidence ([1]; 0.1% canolol vs without canolol): 64%
- cancer incidence ([1]; gerbils fed with 0.1% canolol, around 57 weeks): 15%
- inflammation of gastric epithelium [5]: markedly suppressed
- COX-2, Gastric antrum (cycloxygenase-2 (COX-2)): 0.9 ± 0.2
- COX-2, Gastric corpus (cycloxygenase-2 (COX-2)): 0.6 ± 0.2
- gastritis in both gastric antrum and corpus [6]: significantly suppressed
- Hyperplasia, Gastric antrum ([6]; n = 10): 1.2 ± 0.6
- Hyperplasia, Gastric corpus ([6]; n = 10): 0.7 ± 0.2
- Neutrophil infiltration, Gastric antrum ([6]; n = 10): 1.2 ± 0.4
- Neutrophil infiltration, Gastric corpus ([6]; n = 10): 0.9 ± 0.2
- antibacterial activity (Helicobacter pylori; in vivo, gerbil stomach): did not show any antibacterial activity
- H. pylori count (CFU) (Helicobacter pylori; [11]): 4.42 ± 0.2 CFU
- effective concentration [7]: 10 to 100 µM
- iNOS, Gastric antrum [8]: 0.9 ± 0.1
- iNOS, Gastric corpus [8]: 0.5 ± 0.1
- concentration that significantly neutralized the toxicity of ONOO- [9]: 12.5 to 50 µM
